Data as given in patent publication US20070264191A1, “Materials and Methods Relating to the Treatment of Glioblastomas” (priority 2004, published 2007).
Peptide text beside a SMILES is read from it.

What was measured:
SF767 glioma cells = test: Transfection with peptide/pNGVL-Luc complexes, luciferase activity, SF767; type: cell-based, human
Method: The formation and transfection of peptide/DNA complexes were carried out according to Patel et al. with slight modifications. […] […] […] The peptide was added dropwise to the DNA solution while vortexing gently (Stuart Scientific, UK). This mixture was allowed to incubate at room temperature (RT) for 30 min. After 30 min, the mixture was diluted to 4 μg/ml DNA with DMEM in the presence of 100 μM of chloroquine, and added to cells.
The human tumor cell lines, dGli36, SF767, U251, A549, HeLa, HepG2, and CNE2 were cultured in DMEM supplemented with 10% fetal bovine serum (FBS) (Hyclone Laboratories, Logan, Utah). For transfection, 3×10^5 cells were seeded into each well of a six-well plate (Nunc, Roskilde, Denmark). After culturing the cells overnight, the cells were washed twice with PBS. Freshly prepared peptide/DNA complexes were added into each well and incubated for 2 h at 37° C. For transfection performed in the presence of serum, FBS was added to a final concentration of 10% directly after addition of peptide/DNA complexes to each well. The reporter gene activity was assayed after 24 h or 48 h.
Cells were harvested from 6-well plates 24 h or 48 h following transfection, washed, resuspended in 120 μl of Tris-HCl (pH 7.8), and freeze-thawed three times. Cell debris was discarded following centrifugation at 14,000 g at 4° C. for 10 min. One hundred μl of the supernatant collected was used for assaying luciferase activity using the Auto-Lumat LB952 luminometer (EG&G Berthold, Bad Wildbad, Germany). Five microliter of the supernatant collected was used for the determination of protein concentration using the Bio-Rad protein assay dye reagent (Bio-Rad Laboratories, Hercules, USA) with the Ultrospec 3000 UV/visible spectrophotometer (Amersham Biosciences AB, Uppsala, Sweden).

U87MG glioma cell line = details: Spear et al., 2001; cited from earlier work
other glioma cells = details: Spear et al., 2001; cited from earlier work
[1] = test system: SF767, U251MG, and M059K human glioma cell lines; test: In vitro fluorescent peptide binding assay, glioma cell lines; details: lissamine-rhodamine conjugated peptide, 100 ng, 20 min, 37° C., FIG. 4
Method: (§1) For in vitro binding assay, 1×10^5 cells were seeded into each well of a 24-well dish (Nunc, Roskilde, Denmark). After culturing the cells overnight at 37° C., the cells were washed once with PBS, followed by incubating in blocking buffer containing PBS with 1% BSA at room temperature for 1 h. The cells were washed twice with PBS. One hundred nanogram of lissamine-rhodamine conjugated peptide (Mimotopes, Victoria, Australia) were added to the blocking buffer containing 0.1% sodium azide, and incubated with the cells at 37° C. for 20 min. This is followed by 5 washes of PBS with 0.1% Tween-20 at RT for 5 min intervals. The cells were then fix in 4% paraformaldehyde, followed by counterstaining using FITC-phalloidin (Sigma-Aldrich Corp., St. Louis, Mo.) and mounted. Images were captured digitally and analyzed using LSM 510 confocal microscope (Carl Zeiss Microscopy, Gottingen, Germany) with appropriate filters.
(§2) To determine the direct specific binding of the (K16)-MG11 peptide to cell surface of glioma cells, (K16)-MG11 peptide was conjugated to lissamine rhodamine. After incubating the conjugated (K16)-MG11 to the various tumor cell lines, SF767, U251MG, M059K, A549, HepG2, and HK1, for 20 minutes at 37° C., the cells were examined under confocal microscopy and the level of fluorescence detected were compared between glioma and non-glioma cells. […]

[2] = test system: non-glioma cell lines (A549, HepG2, HK1); test: In vitro fluorescent peptide binding assay, non-glioma cell lines; set-up: species or system human; details: lissamine-rhodamine conjugated peptide, 100 ng, 20 min, 37° C., FIG. 4
Method: as §1, §2

SF767 glioma xenograft = test: In vivo fluorescent peptide binding assay, intratumoral injection; details: SCID mice, 100 μg lissamine-rhodamine conjugated peptide intratumorally, 20 min, FIG. 6
Method: SF767-tumor bearing mice were randomized into 2 groups (2 per group). Fifty microliter of 100 μg of lissamine rhodamine conjugated (K16)-MG11 or (K16)-H42 was injected intratumorally into 2 mice harboring the tumor, and allowed to circulate for 20 min. After 20 min, the mice were anethesized and perfused through the heart with PBS followed by 4% paraformaldehyde. The tumor were dissected and prepared for cryostat sections. The sections were then counterstained in FITC-phalloidin and mounted. Images were examined using LSM 510 meta confocal microscope (Carl Zeiss Microscopy, Göttingen, Germany) with appropriate filters.
After 20 min of circulation, the mouse bearing the SF767 glioma xenograft was perfused and tumor was harvested. The tumor sections were counterstained with FITC-labeled phalloidin, which stains F-actin, to determine the cell surface.

CC[C@H](C)[C@H](NC(=O)[C@H](CO)NC(=O)[C@H](CCCCN)NC(=O)[C@H](CCCCN)NC(=O)[C@H](CCCCN)NC(=O)[C@H](CCCCN)NC(=O)[C@H](CCCCN)NC(=O)[C@H](CCCCN)NC(=O)[C@H](CCCCN)NC(=O)[C@H](CCCCN)NC(=O)[C@H](CCCCN)NC(=O)[C@H](CCCCN)NC(=O)[C@H](CCCCN)NC(=O)[C@H](CCCCN)NC(=O)[C@H](CCCCN)NC(=O)[C@H](CCCCN)NC(=O)[C@H](CCCCN)NC(=O)[C@@H](N)CCCCN)C(=O)N1CCC[C@H]1C(=O)N[C@H](C(=O)N[C@@H](CCCCN)C(=O)N[C@@H](Cc1ccccc1)C(=O)N[C@@H](CC(N)=O)C(=O)N[C@@H](CCCCN)C(=O)N1CCC[C@H]1C(=O)N[C@@H](CC(C)C)C(=O)N[C@@H](Cc1c[nH]c2ccccc12)C(=O)N[C@@H](C)C(=O)N[C@H](C(=O)N[C@@H](Cc1ccccc1)C(=O)N1CCC[C@H]1C(=O)N1CCC[C@H]1C(=O)N[C@@H](CCCNC(=N)N)C(=O)N1CCC[C@H]1C(=O)N1CCC[C@H]1C(=O)N[C@@H](Cc1c[nH]c2ccccc12)C(=O)N[C@@H](CC(C)C)C(=O)O)[C@@H](C)O)C(C)C [(K16)-MG11, poly-L-lysine-SIPVKFNKP-MG11] (H-KKKKKKKKKKKKKKKKSIPVKFNKPLWATFPPRPPWL-OH)
toxicity to treated cells (SF767 glioma cells; peptide: DNA ratios of 10:1 and 20:1): toxicity could be detected

MCPKHPLGC
binding specificity (U87MG glioma cell line): specific for U87MG glioma cell line | binding (other glioma cells): did not bind

poly-L-lysine-SIPVKFNKP-H42 [(K16)-H42]
luciferase expression (SF767 glioma cells; complex with pNGVL-Luc, chloroquine, 48 h post transfection, FIG. 3C): 8444 RLU/μg | luciferase expression at various peptide to DNA ratios (SF767 glioma cells; ratios 1:2, 2:1, 10:1, 20:1, 24 h post-transfection, FIG. 3A): no significant binding could be detected | cell surface fluorescence (confocal microscopy) [1]: non-specific red fluorescence was observed in all cell lines | cell surface fluorescence (confocal microscopy) [2]: non-specific red fluorescence was observed in all cell lines | red fluorescence in tumor cryostat sections (SF767 glioma xenograft): red fluorescent was not detected
